Usually melting point stands for the temperature of the solid-liquid transition. Compound `CCCCCCCCCC(=O)OC1CCC2C3CCC4=CC(=O)CCC4C3CCC12C` (stereo not drawn) came in with a melting point of 118 °C.

Take `CC(=O)CC(=O)OCc1ccc([N+](=O)[O-])cc1`: the melting point lay in the range of 45 to 46.5 °C.

In the case of `COc1ccc(/C=C(/C#N)c2nc3ccccc3c(=O)[nH]2)cc1`, the melting point was found to be 280 °C.

The compound `CC(=O)c1ccc(O)c(O)c1` showed a melting point of 117 to 119 °C.

Compound `CC(=O)Nc1ccc(C)c(NS(=O)(=O)C(F)(F)F)c1` showed a melting point of 176 °C.

As to `CN1CC(C(=O)NC2(C)OC3(O)C4CCCN4C(=O)C(Cc4ccccc4)N3C2=O)C=C2c3cccc4[nH]cc(c34)CC21` (stereo not drawn), the melting point was determined as 214 °C.

For `Cc1nn(-c2ccccc2)c(N)c1C#N`, the melting point was in the range of 129 to 131 °C.

`CC(=O)CC(=O)Nc1ccc(Cl)cc1` registered a melting point of 132 °C.

The compound `CCOC(=O)c1ccc(Br)cc1` showed a melting point of 18 °C.

Turning to `CCCCCC=CCC=CCCCCCCCC(=O)O`, the melting point is -5 °C.

Take `CCOC(=O)C(C#N)=Cc1ccc(Cl)cc1`: the melting point was in the range of 137 to 138 °C.

Regarding `OCC1OC(SCCc2ccccc2)C(O)C(O)C1O` (stereo not drawn), the melting point worked out at 100 °C.

As for `CC1=CC=C(C(C)C)CC1`, the melting point was -31.1 °C.

The compound `CCNCCS(=O)(=O)c1ccc(C)cc1` gave a melting point of 42 to 45 °C.

For the compound `O=C1CCCCCN1Cc1ccccc1`, the melting point fell in the range of 56 to 57 °C.

`O=C(O)c1ccc(N2C(=O)C3ON=C(C(=O)c4cccs4)C3C2=O)cc1` (stereo not drawn) came in with a melting point of 208 °C.

For `NC=S`, the melting point was determined as 26.5 °C.

The compound `O=C(O)c1cc(I)cc(I)c1I` gave a melting point of 223 to 228 °C.

Compound `Cn1c(N)c(C=O)c(=O)n(C)c1=O` returned a melting point of 199 to 201 °C.

On to `COC(=O)C=Cc1ccc(O)c(OC)c1`, for which the melting point was 64 °C.

Consider `N#CC(=Cc1ccc([N+](=O)[O-])cc1)C(N)=S`, for which the melting point came out at 311 °C.

On to `CSc1nc2[nH]c(=S)n(-c3ccccc3)c(=O)c2n1C`, for which the melting point lay within 268 to 270 °C.

In turn, `N#Cc1cc(F)c(N)cc1F` came in with a melting point of 95 to 97 °C.

For the compound `O=C(c1ccc2ccccc2c1)c1noc(-c2ccc3ccccc3c2)c1S(=O)(=O)c1ccccc1`, the melting point turned out to be 120 °C.

As for `COc1cc2c(cc1O)[C@H](C)N(C)CC2`, the melting point worked out at 182 °C.

Consider `NCCSc1cc(C(F)(F)F)nc2ccccc12`, for which the melting point was 97 to 99 °C.

`O=S(=O)(Cl)Cc1cccc(Br)c1` came in with a melting point of 88 to 89 °C.

`CCOC(=O)C(=CN)C(=O)OCC` yielded a melting point of 63 °C.

`Cc1ccc(CCl)cc1[N+](=O)[O-]` returned a melting point of 46 to 50 °C.

In the case of `N#Cc1cnccc1/C=C/c1ccccc1`, the melting point lay within 128 to 130 °C.

The compound `CC(=O)Nc1cc(CCNC(=O)c2ccccc2)c(NC(C)=O)cc1CCNC(=O)c1ccccc1` displayed a melting point of 285 °C.

Turning to `CC1(C)CCC(=O)CC1`, the melting point is 42 °C.

For `Cc1csc(-c2cn(C(C)C)c(=O)n(CC(=O)NN)c2=O)n1`, the melting point lay within 260 to 263 °C.

For the compound `N#Cc1ccc2ccccc2n1`, the melting point is 95 °C.

For `O=C(Cl)c1ccc(-n2cccn2)cc1`, the melting point lay in the range of 127 to 128 °C.

`C=CCc1ccc(O)cc1` showed a melting point of 15.8 °C.

As to `CC(C)(C)OC(=O)N1CCC(C(N)=S)CC1`, the melting point fell in the range of 130 to 131 °C.

In turn, `c1ccc2c(c1)CCc1ccccc1C2` gave a melting point of 72 to 76 °C.

The compound `O=C(Nc1cccc([N+](=O)[O-])c1)c1ccccc1` showed a melting point of 155 °C.

For `O=C(O)c1cccc(N2CCOCC2)n1`, the melting point was in the range of 127 to 129 °C.

`Nc1c(Cl)cncc1Cl`: the melting point was determined as 161 °C.

As for `OCc1ccc(I)c(O)c1`, the melting point is 148 °C.

`O=S(=O)(Cl)Cc1ccc(C(F)(F)F)cc1` displayed a melting point of 104 to 106 °C.

Compound `COC(=O)c1cc2c(=O)oc3ccccc3c2nc1N` gave a melting point of 263 to 265 °C.

`CCCSc1ncccc1C(=O)O` returned a melting point of 161 °C.

The compound `COc1ccc(-c2ccc(OC)cc2)cc1` had a melting point of 177 to 181 °C.

As for `c1ccc(CC(=NNc2cccc(NN=C(Cc3ccccc3)c3ccccc3)c2)c2ccccc2)cc1`, the melting point came out at 164 °C.

In turn, `CC12CCC(C(=C/O)/C1=N\NC(N)=O)C2(C)C` (stereo not drawn) registered a melting point of 205 to 206 °C.

For the compound `CCCCCCCCCCCCOC(C)=O`, the melting point turned out to be 1.3 °C.

In turn, `CCOC(=O)C(CCc1ccccc1)NC(C)C(=O)N1Cc2ccccc2CC1C(=O)O` (stereo not drawn) gave a melting point of 125 °C.

In the case of `BrC12CC3CC(CC(C3)C1)C2`, the melting point amounted to 119 °C.

For the compound `O=C(Cc1ccccc1)c1ccc2c3c(cccc13)CC2`, the melting point was 114 °C.

Consider `CC1(C)CC(=O)C2=C(C1)Nc1ccc3ccccc3c1C2c1ccccc1` (stereo not drawn), for which the melting point worked out at 314 °C.

`CCOC(=O)C(C#N)c1cc(Cl)c([N+](=O)[O-])cc1[N+](=O)[O-]` (stereo not drawn) came in with a melting point of 109 °C.

Regarding `COc1ccc(S(=O)(=O)c2coc(S(N)(=O)=O)c2)cc1`, the melting point stood at 118 °C.

`Cc1csc(NS(=O)(=O)c2ccc(N)cc2)n1` gave a melting point of 237 °C.

The compound `CCOC(=O)c1cc2c(=O)oc3ccccc3c2n(C)c1=O` displayed a melting point of 202 to 203 °C.

`CNc1ccc2cc3ccc(N(C)S(C)(=O)=O)cc3nc2c1CO` came in with a melting point of 150 °C.

As to `CSc1ccc(I)cc1`, the melting point is 40 to 42 °C.

In the case of `CC1C(=O)C23C(O)CC4C(C)(C)CCC(O)C4(C)C2C(O)CC1C3O` (stereo not drawn), the melting point was found to be 282 °C.

Take `Cc1nc(-c2ccc(S(=O)(=O)NN)cc2)c(-c2ccc(S(=O)(=O)NN)cc2)o1`: the melting point lay within 178 to 180 °C.

As to `Cc1ccccc1N/N=C(\C#N)c1nc(-c2ccccc2)cs1`, the melting point was 144 °C.

`NC(CC(=O)O)c1ccccc1` (racemic) gave a melting point of 222 °C.

Turning to `CC(CN(C)C)CN1c2ccccc2Sc2ccccc21` (stereo not drawn), the melting point stood at 68 °C.

As for `COC(=O)CCC(C)C1CCC2C3C(=O)CC4CCCCC4(C)C3CC(=O)C12C` (stereo not drawn), the melting point was 140 °C.

The compound `CCCCCCCCCCS(=O)(=O)Cl` yielded a melting point of 34 °C.

In turn, `O=S(=O)(Cl)c1sc(Cl)cc1Br` displayed a melting point of 34 to 36 °C.

The compound `O=C(O)c1cccnc1N1CCOCC1` displayed a melting point of 129 to 133 °C.

Consider `C#CCCCCCCC`, for which the melting point is -50 °C.

As for `Oc1cc(F)c(F)c(F)c1`, the melting point stood at 54 °C.

`O=C(O)Cc1csc2ccc(Cl)cc12`: the melting point is 154 °C.

Take `COC(=O)/C(=C/c1ccc([N+](=O)[O-])cc1)c1ccccc1C(=O)OC`: the melting point was 121 to 122 °C.

Compound `N#CCc1ccccc1OCc1ccccc1` registered a melting point of 77 °C.

`N#CCS(=O)(=O)Cc1cccc(C(F)(F)F)c1`: the melting point is 119 to 121 °C.

In turn, `COc1ccc(C=CC(=O)c2ccc(OC)cc2OC)cc1` gave a melting point of 97 °C.

`CC(=O)NNC(C)=O` displayed a melting point of 140 °C.

Consider `CC(=O)N(CC(C)C(=O)O)c1c(I)cc(I)c(N)c1I` (stereo not drawn), for which the melting point turned out to be 224 °C.

For `Cc1ccc(C(c2ccc(C(c3ccc(C)o3)c3ccc(C)o3)cc2)c2ccc(C)o2)o1`, the melting point is 156 °C.

As to `Nc1cc(S(=O)(=O)O)ccc1Cl`, the melting point was 300 °C.

Compound `CCN1CCCC1CNC(=O)c1cc(S(=O)(=O)CC)c(N)cc1OC` (stereo not drawn) displayed a melting point of 126 °C.

Consider `Clc1ccc(CSSCc2ccc(Cl)cc2)cc1`, for which the melting point was 59 to 61 °C.

Consider `CC(C)(C)NCC(O)c1ccc(O)c(CO)c1` (stereo not drawn), for which the melting point came to 154 °C.

`Cc1cc2ccccc2nc1Cl` returned a melting point of 83 to 84 °C.

As to `O=Cc1cc(Cl)cc(Cl)c1Cl`, the melting point is 72 to 76 °C.

The compound `COc1ccc(C(=O)c2cccc(C)c2)cc1C` had a melting point of 62.3 °C.

Compound `COc1cc(C2Nn3c(nnc3-c3ccccc3)S2)ccc1O` (stereo not drawn) had a melting point of 149 °C.

`N#Cc1ccc(Br)cc1Cl` had a melting point of 70 °C.

In the case of `CC12CCC(=O)CC1(O)CCC2=O` (single isomer, unassigned; (+)), the melting point fell in the range of 110 to 118 °C.

`O=C(/C=C/OC(=O)c1ccccc1)CCc1ccccc1`: the melting point lay within 99 to 100 °C.

The compound `C=CC1CC2C=CC1C2` (stereo not drawn) displayed a melting point of -80 °C.

`NP(=O)(Oc1ccccc1)Oc1ccccc1` gave a melting point of 149 °C.

In turn, `COC(=O)C1=Cc2ccccc2C1C` (stereo not drawn) returned a melting point of 32 °C.

Consider `NC(=O)C1CCNCC1`, for which the melting point was found to be 148 °C.

In turn, `CC(CCC(=O)O)C1CCC2C3C(O)CC4CC(O)CCC4(C)C3CC(=O)C12C` (stereo not drawn) yielded a melting point of 220 °C.

For `O=C(c1ccccc1)c1ccc2n1CCC2C(=O)O` (stereo not drawn), the melting point is 160 °C.

Compound `Cc1ccc(S)cc1` displayed a melting point of 43 °C.

Take `CCCCCCCCCCCCCCCCCC(=O)OC(=O)CCCCCCCCCCCCCCCCC`: the melting point turned out to be 72 °C.

For the compound `O=C1OCCOC(=O)c2ccccc2C(=O)OCCOC(=O)c2ccccc21`, the melting point was 192 °C.

Regarding `CCc1cccc(O)c1`, the melting point is -4 °C.

`Cc1cc(C(=O)CCl)c(C)n1-c1ccccc1` yielded a melting point of 93 to 94 °C.

In the case of `O=Cc1ccccc1Sc1ccc(Cl)cc1`, the melting point came to 73 °C.

For `O=C(O)c1cc(O)c2ccccc2n1`, the melting point was 282 °C.

`CC1(C)C(C(=O)OC(C#N)c2cccc(Oc3ccccc3)c2)C1C(Br)C(Br)(Br)Br` (stereo not drawn): the melting point was 143 °C.

In turn, `O=C(N=C=S)c1cccc([N+](=O)[O-])c1` registered a melting point of 93 to 95 °C.

For the compound `COc1ccc(C=CC(=O)Oc2ccc(C=CC(=O)c3ccccc3)cc2)cc1`, the melting point was determined as 158 °C.

On to `CC12CCC(c3cn(-c4ccccc4)nc31)C2(C)C` (stereo not drawn), for which the melting point came to 125 °C.

Regarding `O=S(=O)(Cl)c1ccc(F)cc1`, the melting point was determined as 36.5 °C.

Take `COc1ccc(C=CC(=O)C=Cc2ccc(OC)cc2)cc1`: the melting point was 129 °C.

For the origin of these results see a melting point compilation (Tetko et al.).
